Measurements as given in patent US8580794B2 (AbbVie Inc., priority 2009, dated 2013).
Where two headings read alike, the source gives them in different places.

Molecular target: GST-Bc1-2 (Homo sapiens, UniProt P10415)
Assay: Time Resolved-Fluorescence Resonance Energy Transfer (TR-FRET) Bcl-2 binding assay with F-Bak peptide probe
[1] = GST-Bcl-2 1 nM, F-Bak probe 100 nM, Tb-anti-GST 1 nM, '<' = below limit of detection, read-out: TR-FRET Bcl-2 Binding Ki
[2] = Table 5, direct comparison Z=N vs Z=C analogs, read-out: Bcl-2 FRET ki
[3] = Table 4, selected compounds of Ser. No. 12/631,404, read-out: Bcl-2 FRET Ki

Sequence of GST-Bc1-2 (P10415 whole entry): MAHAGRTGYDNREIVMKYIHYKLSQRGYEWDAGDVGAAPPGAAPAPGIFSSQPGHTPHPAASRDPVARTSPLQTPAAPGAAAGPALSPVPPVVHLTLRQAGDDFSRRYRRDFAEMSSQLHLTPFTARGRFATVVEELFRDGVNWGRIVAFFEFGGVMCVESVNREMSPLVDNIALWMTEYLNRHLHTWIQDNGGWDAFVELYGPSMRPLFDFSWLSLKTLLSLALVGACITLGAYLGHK

Compound	Ki [1] [nM]	Ki [2] [nM]	Ki [3] [nM]
CC1(C)CCC(CN2CCN(c3ccc(C(=O)NS(=O)(=O)c4ccc(NC5CCN([C@H]6CCOC[C@H]6F)CC5)c([N+](=O)[O-])c4)c(Oc4cnc5[nH]ccc5c4)c3)CC2)=C(c2ccc(Cl)cc2)C1 (relative stereo) [Example 115, 4-(4-{[2-(4-chlorophenyl)-4,4-dimethylcyclohex-1-en-1-yl]methyl}piperazin-1-yl)-N-{[4-({1-[cis-3-fluorotetrahydro-2H-pyran-4-yl]piperidin-4-yl}amino)-3-nitrophenyl]sulfonyl}-2-(1H-pyrrolo[2,3-b]pyridin-5-yloxy)benzamide]	< 0.01		
CC1(C)CCC(CN2CCN(c3ccc(C(=O)NS(=O)(=O)c4ccc(OC[C@@H]5CN(C6COC6)C[C@H]5CF)c([N+](=O)[O-])c4)c(Oc4cnc5[nH]ccc5c4)c3)CC2)=C(c2ccc(Cl)cc2)C1 (relative stereo) [Example 137, 4-(4-{[2-(4-chlorophenyl)-4,4-dimethylcyclohex-1-en-1-yl]methyl}piperazin-1-yl)-N-[(4-{[trans-4-(fluoromethyl)-1-oxetan-3-ylpyrrolidin-3-yl]methoxy}-3-nitrophenyl)sulfonyl]-2-(1H-pyrrolo[2,3-b]pyridin-5-yloxy)benzamide]	< 0.01		
O=C(NS(=O)(=O)c1ccc(NCC2CCOCC2)c([N+](=O)[O-])c1)c1ccc(N2CCN(Cc3ccccc3-c3ccc(Cl)cc3)CC2)cc1Oc1cnc2[nH]ccc2c1 [Example 1, 4-{4-[(4′-chloro-1,1′-biphenyl-2-yl)methyl]piperazin-1-yl}-N-({3-nitro-4-[(tetrahydro-2H-pyran-4-ylmethyl)amino]phenyl}sulfonyl)-2-(1H-pyrrolo[2,3-b]pyridin-5-yloxy)benzamide]	0.225	0.225	
O=C(NS(=O)(=O)c1ccc(NCCCN2CCOCC2)c([N+](=O)[O-])c1)c1ccc(N2CCN(Cc3ccccc3-c3ccc(Cl)cc3)CC2)cc1Oc1cnc2[nH]ccc2c1 [Example 2, 4-{4-[(4′-chloro-1,1′-biphenyl-2-yl)methyl]piperazin-1-yl}-N-({4-[(3-morpholin-4-ylpropyl)amino]-3-nitrophenyl}sulfonyl)-2-(1H-pyrrolo[2,3-b]pyridin-5-yloxy)benzamide]	< 0.01	< 0.01	
CC1(C)CCC(CN2CCN(c3ccc(C(=O)NS(=O)(=O)c4ccc(NC5CCN(C6CCOCC6)CC5)c([N+](=O)[O-])c4)c(Oc4cnc5[nH]ccc5c4)c3)CC2)=C(c2ccc(Cl)cc2)C1 [Example 3, 4-(4-{[2-(4-chlorophenyl)-4,4-dimethylcyclohex-1-en-1-yl]methyl}piperazin-1-yl)-N-({3-nitro-4-[(1-tetrahydro-2H-pyran-4-ylpiperidin-4-yl)amino]phenyl}sulfonyl)-2-(1H-pyrrolo[2,3-b]pyridin-5-yloxy)benzamide]	0.013	0.013	
CN1CCC(Nc2ccc(S(=O)(=O)NC(=O)c3ccc(N4CCN(CC5=C(c6ccc(Cl)cc6)CC(C)(C)CC5)CC4)cc3Oc3cccc4[nH]c5ccccc5c34)cc2[N+](=O)[O-])CC1 [Example 7, 2-(9H-carbazol-4-yloxy)-4-(4-{[2-(4-chlorophenyl)-4,4-dimethylcyclohex-1-en-1-yl]methyl}piperazin-1-yl)-N-({4-[(1-methylpiperidin-4-yl)amino]-3-nitrophenyl}sulfonyl)benzamide]	4.92		
CC1(C)CCC(CN2CCN(c3ccc(C(=O)NS(=O)(=O)c4ccc(NCCCN5CCCC5)c([N+](=O)[O-])c4)c(Oc4cccc5[nH]c6ccccc6c45)c3)CC2)=C(c2ccc(Cl)cc2)C1 [Example 8, 2-(9H-carbazol-4-yloxy)-4-(4-{[2-(4-chlorophenyl)-4,4-dimethylcyclohex-1-en-1-yl]methyl}piperazin-1-yl)-N-({3-nitro-4-[(3-pyrrolidin-1-ylpropyl)amino]phenyl}sulfonyl)benzamide]	0.153		
CC1(C)CCC(CN2CCN(c3ccc(C(=O)NS(=O)(=O)c4ccc(NC[C@@H]5CCCOC5)c([N+](=O)[O-])c4)c(Oc4cnc5[nH]ccc5c4)c3)CC2)=C(c2ccc(Cl)cc2)C1 [Example 11, 4-(4-{[2-(4-chlorophenyl)-4,4-dimethylcyclohex-1-en-1-yl]methyl}piperazin-1-yl)-N-[(3-nitro-4-{[(3S)-tetrahydro-2H-pyran-3-ylmethyl]amino}phenyl)sulfonyl]-2-(1H-pyrrolo[2,3-b]pyridin-5-yloxy)benzamide]	0.016	0.016	
CC1(C)CCC(CN2CCN(c3ccc(C(=O)NS(=O)(=O)c4ccc5ccccc5c4)c(Oc4cnc5[nH]ccc5c4)c3)CC2)=C(c2ccc(Cl)cc2)C1 [Example 14, 4-(4-{[2-(4-chlorophenyl)-4,4-dimethylcyclohex-1-en-1-yl]methyl}piperazin-1-yl)-N-(2-naphthylsulfonyl)-2-(1H-pyrrolo[2,3-b]pyridin-5-yloxy)benzamide]	2.8		
COCCNc1ccc(S(=O)(=O)NC(=O)c2ccc(N3CCN(CC4=C(c5ccc(Cl)cc5)CC(C)(C)CC4)CC3)cc2Oc2cnc3[nH]ccc3c2)cc1S(=O)(=O)C(F)(F)F [Example 16, 4-(4-{[2-(4-chlorophenyl)-4,4-dimethylcyclohex-1-en-1-yl]methyl}piperazin-1-yl)-N-({4-[(2-methoxyethyl)amino]-3-[(trifluoromethyl)sulfonyl]phenyl}sulfonyl)-2-(1H-pyrrolo[2,3-b]pyridin-5-yloxy)benzamide]	0.219	0.219	
CC1(C)CCC(CN2CCN(c3ccc(C(=O)NS(=O)(=O)c4ccc(NCC5CCOCC5)c(S(=O)(=O)C(F)(F)F)c4)c(Oc4cnc5[nH]ccc5c4)c3)CC2)=C(c2ccc(Cl)cc2)C1 [Example 17, 4-(4-{[2-(4-chlorophenyl)-4,4-dimethylcyclohex-1-en-1-yl]methyl}piperazin-1-yl)-2-(1H-pyrrolo[2,3-b]pyridin-5-yloxy)-N-({4-[(tetrahydro-2H-pyran-4-ylmethyl)amino]-3-[(trifluoromethyl)sulfonyl]phenyl}sulfonyl)benzamide]	0.09	0.09	
CC1(C)CCC(CN2CCN(c3ccc(C(=O)NS(=O)(=O)c4ccc(NCC5CCOCC5)c([N+](=O)[O-])c4)c(Oc4ccc5[nH]ccc5c4)c3)CC2)=C(c2ccc(Cl)cc2)C1 [Example 18, 4-(4-{[2-(4-chlorophenyl)-4,4-dimethylcyclohex-1-en-1-yl]methyl}piperazin-1-yl)-2-(1H-indol-5-yloxy)-N-({3-nitro-4-[(tetrahydro-2H-pyran-4-ylmethyl)amino]phenyl}sulfonyl)benzamide]	0.017	0.017	
CC1(C)CCC(CN2CCN(c3ccc(C(=O)NS(=O)(=O)c4ccc(N[C@H]5CC[C@H](N6CCOCC6)CC5)c([N+](=O)[O-])c4)c(Oc4ccc5[nH]ccc5c4)c3)CC2)=C(c2ccc(Cl)cc2)C1 [Example 19, Trans-4-(4-{[2-(4-chlorophenyl)-4,4-dimethylcyclohex-1-en-1-yl]methyl}piperazin-1-yl)-2-(1H-indol-5-yloxy)-N-({4-[(4-morpholin-4-ylcyclohexyl)amino]-3-nitrophenyl}sulfonyl)benzamide]	0.226	0.226	0.226
COCCNc1ccc(S(=O)(=O)NC(=O)c2ccc(N3CCN(CC4=C(c5ccc(Cl)cc5)CC(C)(C)CC4)CC3)cc2Oc2ccc3[nH]ccc3c2)cc1[N+](=O)[O-] [Example 20, 4-(4-{[2-(4-chlorophenyl)-4,4-dimethylcyclohex-1-en-1-yl]methyl}piperazin-1-yl)-2-(1H-indol-5-yloxy)-N-({4-[(2-methoxyethyl)amino]-3-nitrophenyl}sulfonyl)benzamide]	0.181	0.181	0.181
CC1(C)CC(c2ccc(Cl)cc2)=C(CN2CCN(c3ccc(C(=O)NS(=O)(=O)c4ccc(NCC5CCOCC5)c([N+](=O)[O-])c4)c(Oc4ccc5[nH]ccc5c4)c3)CC2)CO1 [Example 23, 4-(4-{[4-(4-chlorophenyl)-6,6-dimethyl-5,6-dihydro-2H-pyran-3-yl]methyl}piperazin-1-yl)-2-(1H-indol-5-yloxy)-N-({3-nitro-4-[(tetrahydro-2H-pyran-4-ylmethyl)amino]phenyl}sulfonyl)benzamide]	0.083	0.083	0.083
CC1(C)CCC(CN2CCN(c3ccc(C(=O)NS(=O)(=O)c4ccc(OCC5CCOCC5)c([N+](=O)[O-])c4)c(Oc4cnc5[nH]ccc5c4)c3)CC2)=C(c2ccc(Cl)cc2)C1 [Example 24, 4-(4-{[2-(4-chlorophenyl)-4,4-dimethylcyclohex-1-en-1-yl]methyl}piperazin-1-yl)-N-{[3-nitro-4-(tetrahydro-2H-pyran-4-ylmethoxy)phenyl]sulfonyl}-2-(1H-pyrrolo[2,3-b]pyridin-5-yloxy)benzamide]	< 0.01		
CC1(C)CCC(CN2CCN(c3ccc(C(=O)NS(=O)(=O)c4ccc(NCC5COCCO5)c([N+](=O)[O-])c4)c(Oc4cnc5[nH]ccc5c4)c3)CC2)=C(c2ccc(Cl)cc2)C1 (centres unmarked) [Example 25, 4-(4-{[2-(4-chlorophenyl)-4,4-dimethylcyclohex-1-en-1-yl]methyl}piperazin-1-yl)-N-({4-[(1,4-dioxan-2-ylmethyl)amino]-3-nitrophenyl}sulfonyl)-2-(1H-pyrrolo[2,3-b]pyridin-5-yloxy)benzamide]	< 0.01		
CC1(C)CCC(CN2CCN(c3ccc(C(=O)NS(=O)(=O)c4ccc(NCC(F)(F)F)c([N+](=O)[O-])c4)c(Oc4cnc5[nH]ccc5c4)c3)CC2)=C(c2ccc(Cl)cc2)C1 [Example 26, 4-(4-{[2-(4-chlorophenyl)-4,4-dimethylcyclohex-1-en-1-yl]methyl}piperazin-1-yl)-N-({3-nitro-4-[(2,2,2-trifluoroethyl)amino]phenyl}sulfonyl)-2-(1H-pyrrolo[2,3-b]pyridin-5-yloxy)benzamide]	0.011		
CC1(C)CCC(CN2CCN(c3ccc(C(=O)NS(=O)(=O)c4ccc(NCCC(F)(F)F)c([N+](=O)[O-])c4)c(Oc4cnc5[nH]ccc5c4)c3)CC2)=C(c2ccc(Cl)cc2)C1 [Example 27, 4-(4-{[2-(4-chlorophenyl)-4,4-dimethylcyclohex-1-en-1-yl]methyl}piperazin-1-yl)-N-({3-nitro-4-[(3,3,3-trifluoropropyl)amino]phenyl}sulfonyl)-2-(1H-pyrrolo[2,3-b]pyridin-5-yloxy)benzamide]	0.134		
